Legend:
Experiment in all cases: relative viability (nuclei count vs DMSO), 5 days (fraction); higher = more cells survive
Palbociclib = compound: CC(=O)c1c(C)c2cnc(Nc3ccc(N4CCNCC4)cn3)nc2n(C2CCCC2)c1=O [Palbociclib]
In short: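 Only plates meeting two conditions passed: control CV below 25% and at least one doubling. Lung cancer cell lines, kept overnight at 37 °C in 1536-well plates, were pinned with five library-drug doses (not always all listed) √10 apart on vehicle-anchored plates and grown 5 days without medium change. A one-step fix, permeabilisation and Hoechst stain preceded 4× imaging and MetaXpress nuclear counting. Viability equals treated-well nuclei divided by vehicle-well nuclei, as the median over plates.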

Palbociclib + Dasatinib = compound: CC(=O)c1c(C)c2cnc(Nc3ccc(N4CCNCC4)cn3)nc2n(C2CCCC2)c1=O [Palbociclib] + Cc1nc(Nc2ncc(C(=O)Nc3c(C)cccc3Cl)s2)cc(N2CCN(CCO)CC2)n1 [Dasatinib] (partner 0.075 µM)
In short: (§1)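 Relative viability equals treated-well nuclei counts divided by vehicle-well nuclei counts. Counts came from 4× images of lung cancer cell lines grown in 1536-well plates for 5 days after pin-tool dosing on the day after seeding. Dosing used one drug alone or a fixed anchor-drug dose plus five library-drug doses (not always all listed) in √10 steps, and values are medians of duplicate plates.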

Palbociclib + Decitabine = compound: CC(=O)c1c(C)c2cnc(Nc3ccc(N4CCNCC4)cn3)nc2n(C2CCCC2)c1=O [Palbociclib] + Nc1ncn([C@H]2C[C@H](O)[C@@H](CO)O2)c(=O)n1 [Decitabine] (partner 2 µM)
In short: as §1

Cell Line | relative viability (Palbociclib; 0.01 µM) | relative viability (Palbociclib; 0.03162 µM) | relative viability (Palbociclib; 0.1 µM) | relative viability (Palbociclib; 0.3162 µM) | relative viability (Palbociclib; 0.5 µM, anchor plate) | relative viability (Palbociclib; 1 µM) | relative viability (Palbociclib + Dasatinib; first compound 0.01 µM) | relative viability (Palbociclib + Dasatinib; first compound 0.03162 µM) | relative viability (Palbociclib + Dasatinib; first compound 0.1 µM) | relative viability (Palbociclib + Dasatinib; first compound 0.3162 µM) | relative viability (Palbociclib + Dasatinib; first compound 1 µM) | relative viability (Palbociclib + Decitabine; first compound 0.01 µM) | relative viability (Palbociclib + Decitabine; first compound 0.03162 µM) | relative viability (Palbociclib + Decitabine; first compound 0.1 µM) | relative viability (Palbociclib + Decitabine; first compound 0.3162 µM) | relative viability (Palbociclib + Decitabine; first compound 1 µM)
NCI-H1395 | 1.01 | 0.825 | 0.797 | 0.858 | 0.647 | 0.597 | 0.399 | 0.382 | 0.345 | 0.325 | 0.333 | 0.741 | 0.704 | 0.656 | 0.702 | 0.641
NCI-H1437 | 1.02 | 0.877 | 0.863 | 0.823 | 0.311 | 0.571 | 0.382 | 0.344 | 0.425 | 0.34 | 0.231 | 0.582 | 0.551 | 0.569 | 0.494 | 0.408
NCI-H1650 | 0.928 | 0.734 | 0.77 | 0.726 | 0.359 | 0.487 | 0.29 | 0.287 | 0.275 | 0.275 | 0.208 | 0.414 | 0.427 | 0.474 | 0.421 | 0.349
NCI-H1651 | 0.967 | 0.971 | 0.986 | 0.971 | 0.537 | 0.772 | 0.394 | 0.366 | 0.352 | 0.385 | 0.308 | 0.636 | 0.535 | 0.636 | 0.555 | 0.451
NCI-H1666 | 1 | 0.86 | 0.873 | 0.836 | 0.632 | 0.582 | 0.874 | 0.644 | 0.683 | 0.583 | 0.477 | 0.725 | 0.67 | 0.721 | 0.682 | 0.565
NCI-H1734 | 0.951 | 0.592 | 0.75 | 0.659 | 0.345 | 0.538 | 0.461 | 0.365 | 0.393 | 0.296 | 0.254 | 0.46 | 0.524 | 0.539 | 0.461 | 0.43
NCI-H1755 | 1.03 | 0.896 | 0.915 | 0.845 | 0.443 | 0.664 | 0.381 | 0.373 | 0.371 | 0.399 | 0.279 | 0.742 | 0.744 | 0.614 | 0.7 | 0.635
NCI-H1792 | 0.987 | 0.8 | 0.696 | 0.612 | 0.678 | 0.383 | 0.848 | 0.727 | 0.63 | 0.551 | 0.468 | 0.567 | 0.432 | 0.597 | 0.469 | 0.389
NCI-H1793 | 1.02 | 0.54 | 0.77 | 0.682 | 0.325 | 0.327 | 0.409 |  | 0.359 | 0.342 | 0.221 | 0.559 | 0.613 | 0.611 | 0.46 | 0.342
NCI-H1915 | 1.01 | 0.695 | 0.973 | 0.902 | 0.527 | 0.756 | 0.293 | 0.247 | 0.28 | 0.247 | 0.245 | 0.277 |  | 0.254 | 0.254 | 0.26
NCI-H1944 | 0.971 | 0.762 | 0.886 | 0.885 | 0.345 | 0.532 | 0.211 | 0.162 | 0.193 | 0.19 | 0.147 | 0.45 | 0.426 | 0.447 | 0.438 | 0.431
NCI-H1975 | 0.923 | 0.949 | 0.924 | 0.865 | 0.593 | 0.793 | 0.373 | 0.347 | 0.323 | 0.322 | 0.297 | 0.413 | 0.429 | 0.412 | 0.399 | 0.365
NCI-H1993 | 1.05 | 0.882 | 0.726 | 0.69 | 0.658 | 0.67 | 0.68 | 0.542 | 0.509 | 0.415 | 0.439 | 0.61 | 0.588 | 0.606 | 0.507 | 0.555
NCI-H2009 | 0.991 | 0.905 | 0.781 | 0.693 | 0.237 | 0.35 | 0.272 | 0.212 | 0.187 | 0.223 | 0.159 | 0.375 | 0.347 | 0.358 | 0.365 | 0.274
NCI-H2023 | 0.913 | 0.773 | 0.694 | 0.625 | 0.392 | 0.4 | 0.536 | 0.488 | 0.351 | 0.453 | 0.246 | 0.225 | 0.189 | 0.254 | 0.272 | 0.251
NCI-H2085 | 0.979 | 0.966 | 0.879 | 0.805 | 0.475 | 0.574 | 0.233 | 0.282 | 0.209 | 0.252 | 0.191 | 0.555 | 0.55 | 0.65 | 0.534 | 0.538

Cell Line | relative viability (Palbociclib; 0.01 µM) | relative viability (Palbociclib; 0.03162 µM) | relative viability (Palbociclib; 0.1 µM) | relative viability (Palbociclib; 0.3162 µM) | relative viability (Palbociclib; 0.5 µM, anchor plate) | relative viability (Palbociclib; 1 µM) | relative viability (Palbociclib + Dasatinib; first compound 0.01 µM) | relative viability (Palbociclib + Dasatinib; first compound 0.03162 µM) | relative viability (Palbociclib + Dasatinib; first compound 0.1 µM) | relative viability (Palbociclib + Dasatinib; first compound 0.3162 µM) | relative viability (Palbociclib + Dasatinib; first compound 1 µM) | relative viability (Palbociclib + Decitabine; first compound 0.01 µM) | relative viability (Palbociclib + Decitabine; first compound 0.03162 µM) | relative viability (Palbociclib + Decitabine; first compound 0.1 µM) | relative viability (Palbociclib + Decitabine; first compound 0.3162 µM) | relative viability (Palbociclib + Decitabine; first compound 1 µM)
NCI-H2087 | 1.08 | 0.546 | 0.815 | 0.586 | 0.242 | 0.364 | 0.784 |  | 0.658 | 0.385 | 0.328 | 0.234 | 0.272 | 0.2 | 0.228 | 0.171
NCI-H2126 | 0.996 | 0.649 | 0.792 | 0.694 | 0.353 | 0.464 | 0.574 | 0.449 | 0.355 | 0.387 | 0.27 | 0.637 | 0.568 | 0.492 | 0.539 | 0.463
NCI-H2170 | 0.993 | 0.856 | 0.94 | 0.894 | 0.382 | 0.704 | 0.488 | 0.515 | 0.549 | 0.534 | 0.521 | 0.503 | 0.478 | 0.446 | 0.477 | 0.45
NCI-H2342 | 1.01 | 0.846 | 0.849 | 0.785 | 0.527 | 0.621 | 0.324 | 0.302 | 0.306 | 0.301 | 0.314 | 0.744 | 0.712 | 0.602 | 0.713 | 0.582
NCI-H2347 | 1.05 | 0.905 | 0.87 | 0.775 | 0.424 | 0.684 | 0.341 |  | 0.266 | 0.247 | 0.245 | 0.597 | 0.656 | 0.599 | 0.585 | 0.504
NCI-H2405 | 0.996 | 0.797 | 0.842 | 0.889 | 0.52 | 0.654 | 0.207 | 0.212 | 0.226 | 0.212 | 0.208 | 0.781 | 0.808 | 0.691 | 0.64 | 0.605
NCI-H3122 | 0.977 | 0.944 | 0.866 | 0.797 | 0.192 | 0.456 | 0.762 | 0.546 | 0.386 | 0.414 | 0.231 | 0.394 | 0.423 | 0.347 | 0.33 | 0.277
PC-3 [JPC-3] | 1.08 | 0.895 | 0.855 | 0.761 | 0.536 | 0.59 | 1.06 | 0.758 | 0.936 | 0.801 | 0.566 | 0.804 | 0.713 | 0.76 | 0.782 | 0.607
PC-14 | 1.13 | 0.847 | 0.841 | 0.873 | 0.514 | 0.503 | 0.324 | 0.223 | 0.207 | 0.164 | 0.115 | 0.329 | 0.217 | 0.224 | 0.27 | 0.205
RERF-LC-KJ | 1.02 | 0.871 | 0.968 | 1.02 | 1.09 | 1.02 | 0.832 | 0.802 | 0.717 | 0.852 | 0.922 | 0.879 | 0.732 | 0.733 | 0.748 | 0.767
SK-LU-1 | 1.05 | 0.912 | 0.828 | 0.794 | 0.385 | 0.563 | 0.183 | 0.157 | 0.147 | 0.133 | 0.161 | 0.644 | 0.659 | 0.6 | 0.639 | 0.505
SK-MES-1 | 0.931 | 0.852 | 0.683 | 0.648 | 0.327 | 0.361 | 0.346 | 0.358 | 0.165 | 0.129 | 0.188 | 0.354 | 0.377 | 0.404 | 0.357 | 0.263
SW 900 | 1.01 |  | 0.768 | 0.565 | 0.565 | 0.541 | 0.641 |  | 0.543 | 0.479 | 0.46 | 0.393 |  | 0.475 | 0.478 | 0.484
SW 1573 | 0.994 | 0.789 | 0.8 | 0.723 | 0.419 | 0.617 | 0.495 | 0.321 | 0.354 | 0.394 | 0.277 | 0.573 | 0.455 | 0.598 | 0.479 | 0.326
UMC-11 | 1 | 0.824 | 0.709 | 0.575 | 0.332 | 0.291 | 0.491 | 0.395 | 0.346 | 0.328 | 0.232 | 0.696 | 0.624 | 0.363 | 0.48 | 0.336
